Laboratory results: ChEMBL document CHEMBL1201862, “PubChem BioAssay data set” (2004)
Active and inactive are the calls of the source.

How the values were obtained:
Genome polyprotein = Genome polyprotein (dengue virus type 2, UniProt P29990); assay: Dengue-2 NS5 methyltransferase inhibitors, primary screen, biochemical, confirmation dose response (AID 588689); type: functional
[1] = biological target: T1, Microphthalmia-associated transcription factor (Homo sapiens, UniProt O75030); assay: TRPM1 promoter luciferase signal decrease, dose response, MITF inhibitor project, cell-based, SK-MEL-5, cherry-picked, set 3 (AID 493073); type: functional
T1 sequence (O75030 whole entry): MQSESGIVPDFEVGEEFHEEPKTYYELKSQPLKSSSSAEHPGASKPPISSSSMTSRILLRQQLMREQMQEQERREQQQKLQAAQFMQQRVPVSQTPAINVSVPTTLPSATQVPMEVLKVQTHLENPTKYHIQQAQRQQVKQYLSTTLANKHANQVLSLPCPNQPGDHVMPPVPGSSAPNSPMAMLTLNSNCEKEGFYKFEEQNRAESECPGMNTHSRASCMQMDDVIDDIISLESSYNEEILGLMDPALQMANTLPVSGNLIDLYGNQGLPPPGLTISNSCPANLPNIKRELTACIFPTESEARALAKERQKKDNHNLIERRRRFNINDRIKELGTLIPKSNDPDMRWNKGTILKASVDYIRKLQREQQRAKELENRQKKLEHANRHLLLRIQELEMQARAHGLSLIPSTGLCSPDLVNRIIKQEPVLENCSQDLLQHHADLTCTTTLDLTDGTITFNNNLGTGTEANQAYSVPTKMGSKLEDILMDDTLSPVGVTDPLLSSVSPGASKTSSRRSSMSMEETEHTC

[2] = Shn3 3'UTR reporter inhibitors, dose response, cell-based, Clone20 osteoblasts, firefly luciferase, cherry-picked (AID 624132); type: functional;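 also: firefly luciferase luminescence from reporter carrying the Shn3 3'UTR in osteoblasts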
[3] = HepG2 cell cytotoxicity, dose response, cytotoxicity control for Shn3 inhibitor project, CellTiter-Glo, cherry-picked (AID 624134); type: functional, cell-based
[4] = control 3'UTR Renilla luciferase suppression, dose response, counter-screen for Shn3 inhibitor project, cell-based, Clone20-Shn3RL, cherry-picked (AID 624133); type: functional
[5] = test system: Streptococcus sp. 'group A'; assay: growth inhibition of control SK(-) GAS strain, dose response, counter-screen for streptokinase expression inhibitor project, luminescence, kanamycin, BacTiterGlo, confirmation (AID 1900); type: functional, organism-based
Streptokinase A = biological target: T2, Streptokinase A (Streptococcus pyogenes serotype M1, UniProt P10520); assay: S. pyogenes streptokinase expression inhibitors, potency, dose response, plasminogen activation absorbance, OD405 (AID 1914); type: functional, Streptococcus pyogenes M1 GAS;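 also: secreted streptokinase activity via plasminogen activation per viability signal from cell pellet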
T2 sequence (P10520 whole entry): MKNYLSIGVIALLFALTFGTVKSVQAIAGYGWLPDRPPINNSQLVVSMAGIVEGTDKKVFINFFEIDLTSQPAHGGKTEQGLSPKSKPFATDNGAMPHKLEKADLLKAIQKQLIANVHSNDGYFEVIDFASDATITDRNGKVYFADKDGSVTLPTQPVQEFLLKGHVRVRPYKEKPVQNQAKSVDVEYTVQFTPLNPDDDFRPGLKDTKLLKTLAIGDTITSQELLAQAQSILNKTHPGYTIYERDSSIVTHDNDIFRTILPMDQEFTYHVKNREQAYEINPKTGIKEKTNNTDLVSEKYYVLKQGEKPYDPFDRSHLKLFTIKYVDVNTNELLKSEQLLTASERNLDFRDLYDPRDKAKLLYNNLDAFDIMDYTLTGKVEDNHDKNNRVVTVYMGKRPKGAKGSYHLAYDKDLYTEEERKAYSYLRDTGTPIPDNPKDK

[6] = inhibitors of intracellular T. cruzi replication, confirmation, NIH3T3 host cells, beta-gal luminescence (AID 2044); type: functional, cell-based;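 also: intracellular parasites grown in NIH/3T3 mouse fibroblasts as host cells; luminescent beta-galactosidase reporter signal from transgenic T. cruzi replicating inside host cells; inhibitors lower the luminescence signal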
Streptococcus = assay: Group A Streptococcus viability loss, dose response, counter-screen for streptokinase expression inhibitor project, luminescence, BacTiterGlo (AID 1915); type: functional, organism-based;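 also: potency for reduction of bacterial viability or growth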
[7] = biological target: Heat shock protein HSP 90-alpha (Homo sapiens, UniProt P07900); type: functional, organism-based
INS1 = assay: beta cell apoptosis inhibitors, cytokine rescue, dose response, luminescence, retest (AID 449756); type: functional, cell-based; conditions: Rattus norvegicus;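 also: cell death triggered by IL-1 beta plus TNF-alpha plus IFN-gamma mixture; protective hits raise ATP signal compared with cytokine alone wells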
[8] = biological target: T3, Corticotropin-releasing factor receptor 2/Corticotropin-releasing factor-binding protein (Homo sapiens, UniProt P24387+Q13324); assay: Dose Response confirmation of uHTS hits for small molecule antagonists of the CRF-binding protein and CRF-R2 receptor complex.; type: functional; conditions: read-out: IC50_Mean
T3 sequence (Q13324 whole entry): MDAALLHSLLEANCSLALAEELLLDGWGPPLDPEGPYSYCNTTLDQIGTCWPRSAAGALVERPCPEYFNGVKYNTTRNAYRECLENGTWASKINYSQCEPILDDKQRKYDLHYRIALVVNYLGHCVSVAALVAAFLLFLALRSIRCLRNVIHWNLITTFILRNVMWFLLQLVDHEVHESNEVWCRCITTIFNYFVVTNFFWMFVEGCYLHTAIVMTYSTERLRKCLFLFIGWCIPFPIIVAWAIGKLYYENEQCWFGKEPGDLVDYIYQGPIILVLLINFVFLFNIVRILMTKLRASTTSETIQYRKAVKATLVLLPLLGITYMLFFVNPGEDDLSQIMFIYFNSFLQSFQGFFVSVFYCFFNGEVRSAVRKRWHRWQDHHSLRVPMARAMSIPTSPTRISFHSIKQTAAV
T3 sequence (P24387 whole entry): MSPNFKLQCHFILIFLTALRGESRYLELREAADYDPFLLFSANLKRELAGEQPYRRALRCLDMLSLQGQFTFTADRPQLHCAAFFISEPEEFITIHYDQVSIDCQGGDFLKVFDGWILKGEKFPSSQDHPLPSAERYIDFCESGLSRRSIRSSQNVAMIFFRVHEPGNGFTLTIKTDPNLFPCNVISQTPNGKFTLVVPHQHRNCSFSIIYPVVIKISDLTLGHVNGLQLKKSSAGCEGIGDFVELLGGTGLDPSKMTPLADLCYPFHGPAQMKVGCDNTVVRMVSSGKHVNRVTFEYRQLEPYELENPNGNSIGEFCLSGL

[9] = biological target: T3, Corticotropin-releasing factor receptor 2/Corticotropin-releasing factor-binding protein; assay: activators of CRF receptor 2 with binding protein – uHTS hits, confirmation (AID 602473); type: functional; conditions: read-out: EC50_Mean
[10] = CRF-BP/CRF-R2 complex antagonists, dose response, cell-based, uHTS hits, 384-well (AID 651639); type: functional, Homo sapiens; conditions: read-out: IC50_Mean
Prothrombin = Prothrombin (Homo sapiens, UniProt P00734); assay: Thrombin 1536 HTS Dose Response Confirmation. [Related pubchem assays: 1046 (Thrombin 1536 HTS; hits were confirmed in this assay)]; type: functional
[11] = biological target: T4, Calpain-2 catalytic subunit (Sus scrofa, UniProt P43367); assay: pig calpain II inhibitor potency, dose response, biochemical, fluorogenic peptide substrate (AID 1420); type: functional
T4 sequence (P43367 whole entry): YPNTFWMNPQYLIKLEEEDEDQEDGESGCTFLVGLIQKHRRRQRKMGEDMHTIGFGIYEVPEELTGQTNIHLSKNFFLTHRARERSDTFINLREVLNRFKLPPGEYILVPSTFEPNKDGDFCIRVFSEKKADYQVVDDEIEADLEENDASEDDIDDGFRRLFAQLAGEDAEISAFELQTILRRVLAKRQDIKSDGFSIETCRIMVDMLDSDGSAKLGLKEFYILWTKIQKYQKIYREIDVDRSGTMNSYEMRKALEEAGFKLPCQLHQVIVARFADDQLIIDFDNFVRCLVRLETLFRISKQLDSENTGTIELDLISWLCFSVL

X-box-binding protein 1 = biological target: T5, X-box-binding protein 1 (Homo sapiens, UniProt P17861); type: functional, Cricetulus griseus;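 also: confirmatory dose-response counter-screen serving a CHOP assay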
T5 sequence (P17861 whole entry): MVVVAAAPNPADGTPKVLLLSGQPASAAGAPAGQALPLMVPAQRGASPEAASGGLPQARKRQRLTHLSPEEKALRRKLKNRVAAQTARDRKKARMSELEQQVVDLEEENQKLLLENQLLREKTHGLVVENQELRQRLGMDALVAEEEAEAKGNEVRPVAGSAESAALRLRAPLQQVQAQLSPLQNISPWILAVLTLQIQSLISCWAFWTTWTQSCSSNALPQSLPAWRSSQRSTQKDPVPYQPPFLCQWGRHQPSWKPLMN

CC(C)c1ccc(Nc2ccc(C(=O)O)cc2[N+](=O)[O-])cc1
IC50 (Genome polyprotein): 70.7 µM (active)

Cn1cccc1C(=O)NC(=O)COC(=O)c1ccc(S(C)(=O)=O)c([N+](=O)[O-])c1
AC50 [1]: 9.23 µM (active)
AC50 [2]: 15.1 µM (active)
AC50 [3]: 26 µM (active)
AC50 [4]: 13.6 µM (active)

Oc1c(C(Nc2ccccn2)c2cccnc2)cc(Cl)c2cccnc12 (configuration not stated)
EC50 [5]: 4.69 µM (active)
EC50 (Streptokinase A): > 150 µM (not active)
EC50 [6]: 1.64 µM (active)
EC50 (Streptococcus): 9.26 µM (active)
AC50 [7]: 4.19 µM (active)
AC50 (INS1): 2.65 µM (active)

COc1cccc(CNc2ncnc3cc(Cl)ccc23)c1
AC50 [2]: 3.73 µM (active)
AC50 [3]: > 70 µM (inactive)
AC50 [4]: 5.85 µM (active)

O=[N+]([O-])c1cc(-c2ccccc2)cc([N+](=O)[O-])c1O
IC50 (Genome polyprotein): 58.8 µM (active)
IC50 [8]: 9.96 µM (active)
EC50 [9]: > 53 µM (inactive)
IC50 [10]: > 20 µM (inactive)

Cc1ccc(C2C=C(c3ccccc3)Nc3nc(N4C(=O)CCC4=O)nn32)cc1 (configuration not stated)
IC50 (Prothrombin): 10.9 µM (active)
EC50 [9]: > 53 µM (inactive)

O=[N+]([O-])c1ccc(NC(S)=NCCc2ccc(Cl)cc2)cc1
EC50 [5]: 2.92 µM (active)
EC50 (Streptokinase A): 18.9 µM (active)
IC50 [11]: 1.82 µM (not active)
EC50 (Streptococcus): 33.2 µM (active)
Absolute IC50 (XBP1) (X-box-binding protein 1): 10 µM
AC50 [7]: 4.1 µM (active)
AC50 (INS1): 7.38 µM (active)
